In patent publication US4571405A, “Anti-allergic chromone- or thiochromone-5-oxamic acid derivatives, compositions, and method of use therefor” (Miles Laboratories, Inc., priority 1984, dated 1986):
Several values for one entry are separate records, joined by “and”; a condition that tells them apart may be missing. Equal entries are not always repeated. Where two headings read alike, the source gives them in different places.

Tests used:
[1] = test system: passive cutaneous anaphylaxis reaction (PCA reaction); experiment: Passive cutaneous anaphylaxis reaction (PCA reaction), intravenous, rats; format: in vivo, Male Lister-Hooded rats; details: for ED50: Rattus norvegicus, iv
Description: (§1) The antiallergic activity of the compounds of the present invention was determined by a passive cutaneous anaphylaxis reaction (PCA reaction) which was conducted as described in Life Sciences, 1, p. 465 (1963) and Immunology, 12, p. 113 (1967) both of which are incorporated herein by reference. Male Lister-Hooded rats were depilated and injected intradermally with a dilution of rat serum containing IgE antibody against ovalbumin. Twenty-four hours later the rats were challenged with an intravenous injection of the antigen (ovalbumin) and a blue indicator dye. The intensity of the passive cutaneous anaphylactic reaction was determined by observing the size of discrete blue sites (from the indicator) on the backs of the rats. Simultaneous with the challenge, one group of the rats was injected (intravenously) with various concentrations of test compounds (i.e., compounds of formula I), in order to determine the 50 percent inhibitory concentration (IC50) for each of said compounds tested. The other group of rats was administered intravenous sodium cromoglycate (SCG), a known antiallergic agent and thus served as a positive control. The results of this test are set forth in Table 1 where the IC50 for the test compounds and SCG are expressed irn micromoles per kiligram of body weight.

PCA reaction = experiment: Oral activity in PCA reaction (intragastric dose), rats; format: in vivo, Male Lister-Hooded rats; details: 30 mg/kg intragastrically, thirty minutes prior to antigen challenge, relative to control; for inhibition at 30 mg/kg: Rattus norvegicus, po, read-out: Percent Inhibition of PCA Reaction
Description: as §1
Following substantially the same technique as described above, the oral activity of various test compounds (i.e., compounds of formula I) was determined. Thirty minutes prior to the antigen challenge described above, a dose of 30 mg/kg of one of the test compounds was administered intragastrically and the percent inhibition of the percutaneous anaphylactic reaction was determined (as compared to control animals where no test compound was administered). The results of this test are set forth in Table 2 and are expressed as percent inhibition of anaphylaxis relative to control.

mast cells = experiment: Inhibition of antigen-induced histamine (spasmogen) release from passively sensitized peritoneal mast cells; format: cell-based, rats
Description: Peritoneal mast cells passively sensitized to antigen (dinitrophenyl-ovalbumin) 24 hours previously were obtained by lavage. Pools of cells were prepared from ten or more rats and aliquots (100 μl) were dispensed into polyethylene tubes. To each tube was added one of the test compounds at a concentration shown in Table 3 together with a constant dose (1 μg) of antigen (dinitrophenyl-bovine serum albumin). Each treatment was repeated in at least three tubes. All of the tubes were incubated at 37° C. for 10 minutes. The mast cells were sedimented by centrifugation and the supernatant fluid removed. The concentration of histamine released as a result of the addition of antigen was determined fluorimetrically and comparisons made with the concentration of histamine released in the absence of drug using the formula: [formula] where d=histamine release in presence of test compound,
a=histamine release in presence of antigen along
s=histamine release in presence of saline or drug vehicle (i.e., control).
The results of this test are set forth in Table 3 and are expressed as a percent inhibition of spasmogen release for each concentration (in moles) of the test compound utilized in the above-described procedure.

[2] = simultaneous with antigen (ovalbumin) challenge, per kilogram of body weight, read-out: INHIBITION OF PCA REACTION IC50, Compound of Example No.

SMILES | ED50 [1, 2] | inhibition at 30 mg/kg (PCA reaction) | Percent Inhibition of Mast Cell Histamine Release (mast cells; 10^-2 (moles)) | Percent Inhibition of Mast Cell Histamine Release (mast cells; 10^-3 (moles)) | Percent Inhibition of Mast Cell Histamine Release (mast cells; 10^-4 (moles)) | Percent Inhibition of Mast Cell Histamine Release (mast cells; 10^-5 (moles)) | Percent Inhibition of Mast Cell Histamine Release (mast cells; 10^-6 (moles)) | further results
O=C(O)C(=O)Nc1cccc2oc3c(c(=O)c12)CCCC3 [2,3cyclohexenochromone-5-oxamic acid, 2,3-cyclohexenochromone-5-oxamic acid] | – | – | – | – | – | – | – | INHIBITION OF PCA REACTION IC50, Compound of Example No. ([1]; intravenous, simultaneous with antigen (ovalbumin) challenge, per kilogram of body weight, listed as 2,3cyclohexeneochromone-5-oxamic acid): 11.2 micromoles/kilogram
O=C(O)C(=O)Nc1cccc2oc3c(c(=O)c12)CCCC3 [Example I, Sodium 2,3-cyclohexenochromone-5-oxamate] | 10.4 µmol/kg | 27% | 85.7% | 78.6% | 10.9% | 12.6% | 12.0% | –
CC1(C)CCc2sc3cccc(NC(=O)C(=O)O)c3c(=O)c2C1 [Example V, Sodium 2,3-(4',4'-dimethylcyclohexeno)thiochromone-5-oxamate] | 10 µmol/kg | 14% | 96.7% | 74.8% | 40.8% | 2.7% | 38.7% | –
CC1(C)CCC2=C(C1)C(=O)c1c(NC(=O)C(=O)O)cccc1S2(=O)=O [Example VI, Sodium 2,3-(4',4'-dimethylcyclohexeno)thiochromone-5-oxamate-1,1-dioxide] | 16.5 µmol/kg | 27% | 95.1% | 86.9% | 44.1% | 3.7% | 4.4% | –
CCC1CCc2oc3cccc(NC(=O)C(=O)O)c3c(=O)c2C1 (stereo not shown) [II, Sodium 2,3-(4'-ethylcyclohexeno)chromone-5-oxamate] | 15.5 µmol/kg | 46% | – | – | – | – | – | –
CC1(C)CCc2oc3cccc(NC(=O)C(=O)O)c3c(=O)c2C1 [III, Sodium 2,3-(4',4'-dimethylcyclohexeno)chromone-5-oxamate] | 9.6 µmol/kg | 60% | 92.9% | 95.1% | 57.6% | 10.6% | 8.2% | –
Cc1oc2cccc(NC(=O)C(=O)O)c2c(=O)c1C [IV, Sodium 2,3-dimethylchromone-5-oxamate] | 5 µmol/kg | 39% | – | – | – | – | – | –
O=C(O)c1cc(=O)c2c(OCC(O)COc3cccc4oc(C(=O)O)cc(=O)c34)cccc2o1 [SCG, sodium cromoglycate, reference compound] | – | – | – | – | – | – | – | ED50 ([1]; intravenous sodium cromoglycate positive control, run alongside each test compound, read-out: INHIBITION OF PCA REACTION IC50, SCG): 3.6 µmol/kg; INHIBITION OF PCA REACTION IC50, SCG ([1]; intravenous sodium cromoglycate positive control, run alongside each test compound): 2.1 micromoles/kilogram and 1.8 micromoles/kilogram and 2.4 micromoles/kilogram
O=C1c2ccccc2S(=O)(=O)c2cc(-c3nnn[nH]3)ccc21 [doxantrazole, reference compound] | – | – | – | – | – | – | – | Percent Inhibition of PCA Reaction (PCA reaction): ten
CCCc1c2c(c(O)c3c(=O)cc(C(=O)O)oc13)CCCC2 [proxicromil, reference compound] | – | – | – | – | – | – | – | Percent Inhibition of PCA Reaction (PCA reaction): ten
